# Data from patent US20230106592A1, “METHOD FOR TREATING CANCER USING A COMBINATION OF DNA DAMAGING AGENTS AND ATR INHIBITORS” (Vertex Pharmaceuticals Incorporated, priority 2015, published 2023).
# Assay: Phase I trial, combination with carboplatin: adverse events and DLTs
# Format: in vivo, human
# Procedure: Pts with advanced solid tumors enrolled in 2 sequential parts.
# In part A, single pt cohorts received a compound of Formula A-2 once weekly in 21-day cycles with 3+3 dose escalation cohorts being implemented if grade 2 drug-related adverse events (AEs) occurred. […] If a DLT was reported, the cohort was expanded to include 3 additional pts with subsequent dose escalation being permitted if no further DLTs occurred. Paired pre- and post-treatment biopsies from selected pts in part B were assessed for pCHK1 levels by immunohistochemistry. Models based on preclinical and clinical data were used to simulate hematologic toxicities and pCHK1 inhibition for pts treated with a compound of Formula A-2 and CP.
# [1] = A-2 90 mg/m2 + Carboplatin AUC 5 (n = 3)
# [2] = A-2 90 mg/m^2 + Carboplatin AUC5 (N = 6)
# [3] = A-2 120 mg/m2 + Carboplatin AUC 4 (n = 3)
# [4] = A-2 120 mg/m2 + Carboplatin AUC 5 (n = 3)
# [5] = A-2 120 mg/m^2 + Carboplatin AUC4 (N = 3)
smiles,measurement,setting,value
CNCc1ccc(-c2cc(-c3nc(-c4ccc(S(=O)(=O)C(C)C)cc4)cnc3N)on2)cc1 [Compound A-2],"Treatment related adverse event: Alopecia, All Grades",[1],2 (20.0) n (%)
same,"Treatment related adverse event: Alopecia, Grade ≥ 3",[1],0 n (%)
same,"Treatment related adverse event: Anemia, All Grades",[1],4 (40.0) n (%)
same,"Treatment related adverse event: Anemia, Grade ≥ 3",[1],0 n (%)
same,"Treatment related adverse event: Any Event, All Grades",[1],9 (90.0) n (%)
same,"Treatment related adverse event: Any Event, Grade ≥ 3",[1],1 (10.0) n (%)
same,"Treatment related adverse event: Fatigue, All Grades",[1],4 (40.0) n (%)
same,"Treatment related adverse event: Fatigue, Grade ≥ 3",[1],0 n (%)
same,"Treatment related adverse event: Flushing, All Grades",[1],1 (10.0) n (%)
same,"Treatment related adverse event: Flushing, Grade ≥ 3",[1],0 n (%)
same,"Treatment related adverse event: Headache, All Grades",[1],0 n (%)
same,"Treatment related adverse event: Headache, Grade ≥ 3",[1],0 n (%)
same,"Treatment related adverse event: Hypersensitivity, All Grades",[1],0 n (%)
same,"Treatment related adverse event: Hypersensitivity, Grade ≥ 3",[1],0 n (%)
same,"Treatment related adverse event: Infusion related reaction, All Grades",[1],1 (10.0) n (%)
same,"Treatment related adverse event: Infusion related reaction, Grade ≥ 3",[1],0 n (%)
same,"Treatment related adverse event: Nausea, All Grades",[1],3 (30.0) n (%)
same,"Treatment related adverse event: Nausea, Grade ≥ 3",[1],0 n (%)
same,"Treatment related adverse event: Neuropathy peripheral, All Grades",[1],0 n (%)
same,"Treatment related adverse event: Neuropathy peripheral, Grade ≥ 3",[1],0 n (%)
same,"Treatment related adverse event: Neutropenia, All Grades",[1],3 (30.0) n (%)
same,"Treatment related adverse event: Neutropenia, Grade ≥ 3",[1],1 (10.0) n (%)
same,"Treatment related adverse event: Pruritus, All Grades",[1],1 (10.0) n (%)
same,"Treatment related adverse event: Pruritus, Grade ≥ 3",[1],0 n (%)
same,"Treatment related adverse event: Thrombocytopenia, All Grades",[1],2 (20.0) n (%)
same,"Treatment related adverse event: Thrombocytopenia, Grade ≥ 3",[1],0 n (%)
same,"Treatment related adverse event: Vomiting, All Grades",[1],0 n (%)
same,"Treatment related adverse event: Vomiting, Grade ≥ 3",[1],0 n (%)
same,"Treatment related adverse event: Alopecia, All",[2],2
same,"Treatment related adverse event: Alopecia, ≥3",[2],0
same,"Treatment related adverse event: Anemia, All",[2],3
same,"Treatment related adverse event: Anemia, ≥3",[2],0
same,"Treatment related adverse event: Fatigue, All",[2],3
same,"Treatment related adverse event: Fatigue, ≥3",[2],0
same,"Treatment related adverse event: Flushing, All",[2],0
same,"Treatment related adverse event: Flushing, ≥3",[2],0
same,"Treatment related adverse event: Headache, All",[2],0
same,"Treatment related adverse event: Headache, ≥3",[2],0
same,"Treatment related adverse event: Hypertension, All",[2],0
same,"Treatment related adverse event: Hypertension, ≥3",[2],0
same,"Treatment related adverse event: Nausea, All",[2],1
same,"Treatment related adverse event: Nausea, ≥3",[2],0
same,"Treatment related adverse event: Neuropathy peripheral, All",[2],0
same,"Treatment related adverse event: Neuropathy peripheral, ≥3",[2],0
same,"Treatment related adverse event: Neutropenia, All",[2],2
same,"Treatment related adverse event: Neutropenia, ≥3",[2],1
same,"Treatment related adverse event: Respiratory tract infection, ≥3",[2],0
same,"Treatment related adverse event: Thrombocytopenia, All",[2],2
same,"Treatment related adverse event: Thrombocytopenia, ≥3",[2],0
same,"Treatment related adverse event: Vomiting, All",[2],0
same,"Treatment related adverse event: Vomiting, ≥3",[2],0
same,"Treatment related adverse event: Alopecia, All Grades",[3],0 n (%)
same,"Treatment related adverse event: Alopecia, Grade ≥ 3",[3],0 n (%)
same,"Treatment related adverse event: Anemia, All Grades",[3],1 (33.3) n (%)
same,"Treatment related adverse event: Anemia, Grade ≥ 3",[3],0 n (%)
same,"Treatment related adverse event: Any Event, Grade ≥ 3",[3],0 n (%)
same,"Treatment related adverse event: Fatigue, All Grades",[3],0 n (%)
same,"Treatment related adverse event: Fatigue, Grade ≥ 3",[3],0 n (%)
same,"Treatment related adverse event: Flushing, All Grades",[3],1 (33.3) n (%)
same,"Treatment related adverse event: Flushing, Grade ≥ 3",[3],0 n (%)
same,"Treatment related adverse event: Headache, All Grades",[3],0 n (%)
same,"Treatment related adverse event: Headache, Grade ≥ 3",[3],0 n (%)
same,"Treatment related adverse event: Hypersensitivity, All Grades",[3],0 n (%)
same,"Treatment related adverse event: Hypersensitivity, Grade ≥ 3",[3],0 n (%)
same,"Treatment related adverse event: Infusion related reaction, All Grades",[3],0 n (%)
same,"Treatment related adverse event: Infusion related reaction, Grade ≥ 3",[3],0 n (%)
same,"Treatment related adverse event: Nausea, All Grades",[3],1 (33.3) n (%)
same,"Treatment related adverse event: Nausea, Grade ≥ 3",[3],0 n (%)
same,"Treatment related adverse event: Neuropathy peripheral, All Grades",[3],0 n (%)
same,"Treatment related adverse event: Neuropathy peripheral, Grade ≥ 3",[3],0 n (%)
same,"Treatment related adverse event: Neutropenia, All Grades",[3],0 n (%)
same,"Treatment related adverse event: Neutropenia, Grade ≥ 3",[3],0 n (%)
same,"Treatment related adverse event: Pruritus, All Grades",[3],1 (33.3) n (%)
same,"Treatment related adverse event: Pruritus, Grade ≥ 3",[3],0 n (%)
same,"Treatment related adverse event: Thrombocytopenia, All Grades",[3],1 (33.3) n (%)
same,"Treatment related adverse event: Thrombocytopenia, Grade ≥ 3",[3],0 n (%)
same,"Treatment related adverse event: Vomiting, All Grades",[3],0 n (%)
same,"Treatment related adverse event: Vomiting, Grade ≥ 3",[3],0 n (%)
same,"Treatment related adverse event: Alopecia, All Grades",[4],0 n (%)
same,"Treatment related adverse event: Alopecia, Grade ≥ 3",[4],0 n (%)
same,"Treatment related adverse event: Anemia, Grade ≥ 3",[4],0 n (%)
same,"Treatment related adverse event: Any Event, All Grades",[4],3 (100) n (%)
same,"Treatment related adverse event: Fatigue, All Grades",[4],1 (33.3) n (%)
same,"Treatment related adverse event: Fatigue, Grade ≥ 3",[4],0 n (%)
same,"Treatment related adverse event: Flushing, All Grades",[4],0 n (%)
same,"Treatment related adverse event: Flushing, Grade ≥ 3",[4],0 n (%)
same,"Treatment related adverse event: Headache, All Grades",[4],0 n (%)
same,"Treatment related adverse event: Headache, Grade ≥ 3",[4],0 n (%)
same,"Treatment related adverse event: Hypersensitivity, All Grades",[4],1 (33.3) n (%)
same,"Treatment related adverse event: Hypersensitivity, Grade ≥ 3",[4],1 (33.3) n (%)
same,"Treatment related adverse event: Infusion related reaction, All Grades",[4],1 (33.3) n (%)
same,"Treatment related adverse event: Infusion related reaction, Grade ≥ 3",[4],0 n (%)
same,"Treatment related adverse event: Nausea, Grade ≥ 3",[4],0 n (%)
same,"Treatment related adverse event: Neuropathy peripheral, All Grades",[4],0 n (%)
same,"Treatment related adverse event: Neuropathy peripheral, Grade ≥ 3",[4],0 n (%)
same,"Treatment related adverse event: Neutropenia, Grade ≥ 3",[4],1 (33.3) n (%)
same,"Treatment related adverse event: Pruritus, All Grades",[4],0 n (%)
same,"Treatment related adverse event: Pruritus, Grade ≥ 3",[4],0 n (%)
same,"Treatment related adverse event: Thrombocytopenia, All Grades",[4],1 (33.3) n (%)
same,"Treatment related adverse event: Thrombocytopenia, Grade ≥ 3",[4],0 n (%)
same,"Treatment related adverse event: Vomiting, All Grades",[4],0 n (%)
same,"Treatment related adverse event: Vomiting, Grade ≥ 3",[4],0 n (%)
same,"Treatment related adverse event: Alopecia, All",[5],0
same,"Treatment related adverse event: Alopecia, ≥3",[5],0
same,"Treatment related adverse event: Anemia, All",[5],1
same,"Treatment related adverse event: Anemia, ≥3",[5],0
same,"Treatment related adverse event: Fatigue, All",[5],0
same,"Treatment related adverse event: Fatigue, ≥3",[5],0
same,"Treatment related adverse event: Flushing, All",[5],1
same,"Treatment related adverse event: Flushing, ≥3",[5],0
same,"Treatment related adverse event: Headache, All",[5],0
same,"Treatment related adverse event: Headache, ≥3",[5],0
same,"Treatment related adverse event: Hypertension, All",[5],0
same,"Treatment related adverse event: Hypertension, ≥3",[5],0
same,"Treatment related adverse event: Nausea, All",[5],1
same,"Treatment related adverse event: Nausea, ≥3",[5],0
same,"Treatment related adverse event: Neuropathy peripheral, All",[5],0
same,"Treatment related adverse event: Neuropathy peripheral, ≥3",[5],0
same,"Treatment related adverse event: Neutropenia, All",[5],0
same,"Treatment related adverse event: Neutropenia, ≥3",[5],0
same,"Treatment related adverse event: Respiratory tract infection, All",[5],0
same,"Treatment related adverse event: Respiratory tract infection, ≥3",[5],0
same,"Treatment related adverse event: Thrombocytopenia, All",[5],1
same,"Treatment related adverse event: Thrombocytopenia, ≥3",[5],0
